Paper PMC10828645 (Heliyon, 2024)
Where two headings read alike, the source gives them in different places.

Key:
[1] = Ionized fraction at pH 7.4 calculated from pKa; conditions: for Ionized fraction fcation: pH 7.4, Eq. (5), from literature basic pKa; for Ionized fraction fanion: pH 7.4, Eq. (6), from literature acidic pKa
[2] = cited from earlier work
[3] = marketed drugs; ref [1],[7]; cited from earlier work
[4] = ref [1]; cited from earlier work
[5] = type: in vivo, CD-1 mice; conditions: CD-1, mouse, brain and plasma, intraperitoneal
[6] = Equilibrium dialysis, unbound fraction in plasma; type: in vitro ADME, CD-1 mice; conditions: CD-1, mouse, pH 7.4
[7] = Equilibrium dialysis, unbound fraction in brain homogenate; type: in vitro ADME, CD-1 mice; conditions: CD-1, mouse, brain homogenate (10 % w/v), pH 7.4
[8] = marketed drugs, external validation, ref [1],[7]

Structure (SMILES) | Ionized fraction fcation [1] | Kp,brain ([2]; mouse, in vivo) | Kp,uu,brain ([2]; mouse, in vivo) | fu,b [3] | Basic_pKa [4] | further results
C#CCN(C)[C@H](C)Cc1ccccc1 [Selegiline] | 0.5573 | 3.70 | 1.30 | 0.056 | 7.5 | –
Cc1nc2n(c(=O)c1CCN1CCC(c3noc4cc(F)ccc34)CC1)CCCC2 [Risperidone] | 0.9091 | – | – | – | 8.4 | Kp,uu,brain [2, 8]: 0.26
CCN1CCCC1CNC(=O)c1cc(S(N)(=O)=O)ccc1OC (stereo not shown) [Sulpiride] | 0.9693 | 0.08 | 0.06 | – | 8.9 | Ionized fraction fanion [1]: 0.0017; Acidic_pKa [4]: 10.2
CCN(CC)CCNC(=O)c1cc(Cl)c(N)cc1OC [Metoclopramide] | 0.9937 | 1.20 | 0.52 | 0.310 | – | Ionized fraction fanion [1]: 0.0001
C=C[C@H]1C[N@@]2CC[C@H]1C[C@@H]2[C@@H](O)c1ccnc2ccc(OC)cc12 [Quinidine] | – | – | – | – | – | Kp uu at 2 h [5]: 0.05; fraction unbound at 5 h, 1 μM [6]: 0.286
O=C1CC2(CCCC2)CC(=O)N1CCCCN1CCN(c2ncccn2)CC1 [Buspirone] | 0.5573 | – | – | – | – | –
COCCCC/C(=N\OCCN)c1ccc(C(F)(F)F)cc1 [Fluvoxamine] | 0.9901 | – | – | – | – | –
CC(C)NCC(O)COc1cccc2ccccc12 (stereo not shown) [Propranolol] | – | – | – | – | – | Kp uu at 2 h [5]: 3.08; fraction unbound at 5 h, 1 μM [7]: 0.022
COc1ccc2c3c1O[C@H]1C(=O)CC[C@H]4[C@@H](C2)N(C)CC[C@]314 [Hydrocodone] | 0.9264 | 2.10 | 1.96 | 0.550 | 8.5 | –
O=c1n(CCCN2CCN(c3cccc(Cl)c3)CC2)nc2ccccn12 [Trazodone] | 0.3869 | – | 0.56 | 0.047 | 7.2 | Kp,brain [2, 8]: 0.61
CNCCC(Oc1ccc(C(F)(F)F)cc1)c1ccccc1 (stereo not shown) [Fluoxetine] | 0.9980 | – | – | – | – | Kp,brain [2, 8]: 12.0; Kp,uu,brain [2, 8]: 0.89
O=C(CCCN1CCC(O)(c2ccc(Cl)cc2)CC1)c1ccc(F)cc1 [Haloperidol] | 0.8882 | – | – | 0.007 | – | Kp,brain [2, 8]: 13.0; Kp,uu,brain [2, 8]: 1.06
CN[C@H]1CC[C@@H](c2ccc(Cl)c(Cl)c2)c2ccccc21 [Sertraline] | 0.9921 | – | – | – | 9.5 | –
CN1CCN(C2=Nc3cc(Cl)ccc3Nc3ccccc32)CC1 [Clozapine] | 0.3339 | – | – | 0.009 | – | Kp,brain [2, 8]: 4.10; Kp,uu,brain [2, 8]: 1.01
COC(=O)C(c1ccccc1)C1CCCCN1 (stereo not shown) [Methylphenidate] | 0.9994 | 12.0 | 3.43 | 0.220 | 10.6 | –
CN1CC[C@]23c4c5ccc(O)c4O[C@H]2[C@@H](O)C=C[C@H]3[C@H]1C5 [Morphine] | 0.8882 | – | – | – | – | Ionized fraction fanion [1]: 0.0038
OCCOCCN1CCN(C(c2ccccc2)c2ccc(Cl)cc2)CC1 (stereo not shown) [Hydroxyzine] | 0.3339 | 7.70 | 1.51 | 0.010 | 7.1 | –

Structure (SMILES) | Ionized fraction fcation [1] | Kp,brain ([2]; mouse, in vivo) | Kp,uu,brain ([2]; mouse, in vivo) | fu,b [3] | Basic_pKa [4] | further results
CNCCC=C1c2ccccc2CCc2ccccc21 [Nortriptyline] | 0.9980 | 11.0 | 1.63 | 0.005 | 10.1 | –
CCCC(C)(COC(N)=O)COC(N)=O [Meprobamate] | – | – | – | 0.760 | – | Ionized fraction fanion [1]: 0.0001; Kp,uu,brain [2, 8]: 0.42; Acidic_pKa [4]: 11.3
CCCC(C)(COC(N)=O)COC(=O)NC(C)C (stereo not shown) [Carisoprodol] | – | – | – | 0.202 | – | Ionized fraction fanion [1]: 0.0003; Kp,brain [2, 8]: 0.66; Kp,uu,brain [2, 8]: 0.34; Acidic_pKa [4]: 11.0
O=C1NC(=O)C(c2ccccc2)(c2ccccc2)N1 [Phenytoin] | – | – | – | – | – | Ionized fraction fanion [1]: 0.1118; Kp,brain [2, 8]: 0.63; Kp,uu,brain [2, 8]: 0.28; Acidic_pKa [4]: 8.30
Cc1ccc(-c2nc3ccc(C)cn3c2CC(=O)N(C)C)cc1 [Zolpidem] | 0.2403 | 0.29 | 0.24 | 0.200 | 6.9 | –
CCOc1ccc(NC(C)=O)cc1 [Phenacetin] | – | – | – | – | – | Kp uu at 2 h [5]: 0.55; fraction unbound at 5 h, 1 μM [6]: 0.701; fraction unbound at 5 h, 1 μM [7]: 0.442
NC(=O)N1c2ccccc2C=Cc2ccccc21 [Carbamazepine] | – | 0.76 | 0.27 | – | – | Ionized fraction fanion [1]: 0.0003; Acidic_pKa [4]: 10.9
CCC(=O)O[C@](Cc1ccccc1)(c1ccccc1)[C@H](C)CN(C)C [Propoxyphene] | 0.9844 | 2.90 | 0.85 | 0.033 | – | –
CN(C)CCCC1(c2ccc(F)cc2)OCc2cc(C#N)ccc21 (stereo not shown) [Citalopram] | 0.9937 | 5.10 | 0.68 | 0.031 | 9.6 | –
Fc1ccc([C@@H]2CCNC[C@H]2COc2ccc3c(c2)OCO3)cc1 [Paroxetine] | 0.9987 | 3.30 | 0.86 | 0.004 | – | –
CCCC(C)C1(CC)C(=O)NC(=S)NC1=O (stereo not shown) [Thiopental] | – | – | – | 0.146 | – | Ionized fraction fanion [1]: 0.2847; Acidic_pKa [4]: 7.80
Nc1nnc(-c2cccc(Cl)c2Cl)c(N)n1 [Lamotrigine] | – | 1.10 | 0.64 | 0.220 | – | –
CN(C)CCC=C1c2ccccc2C=Cc2ccccc21 [Cyclobenzaprine] | 0.9844 | 12.0 | 1.62 | 0.007 | 9.2 | –
Cc1ncc2n1-c1ccc(Cl)cc1C(c1ccccc1F)=NC2 [Midazolam] | – | – | – | 0.027 | – | Kp,uu,brain [2, 8]: 0.14
CC(=O)CC(c1ccccc1)c1c(O)c2ccccc2oc1=O (stereo not shown) [Warfarin] | – | – | – | – | – | Kp uu at 2 h [5]: 0.19; fraction unbound at 5 h, 1 μM [6]: 0.097; fraction unbound at 5 h, 1 μM [7]: 0.281
COc1ccc(C(CN(C)C)C2(O)CCCCC2)cc1 (stereo not shown) [Venlafaxine] | 0.9876 | – | – | 0.210 | 9.3 | Kp,brain [2, 8]: 4.20; Kp,uu,brain [2, 8]: 0.98
CN(C)CCCN1c2ccccc2Sc2ccc(Cl)cc21 [Chlorpromazine] | 0.9901 | – | – | – | – | Kp,brain [2, 8]: 23.0; Kp,uu,brain [2, 8]: 0.65
